In general, IC50 refers to the concentration that gives 50% inhibition.

One assay concerns SW480. Nature of the assay: Antiproliferative activity against human SW480 cells assessed as inhibition of cell growth incubated for 72 hrs by SRB assay. Type of assay: functional, cell-based. The conditions noted are these: SW480, 72 h.
The next assay deals with CCD-841CoN. Nature of the assay: Antiproliferative activity against human CCD-841CoN cells assessed as inhibition of cell growth incubated for 72 hrs by SRB assay. Type of assay: cell-based. (In general: In SRB staining, fixed cells bind dye roughly in proportion to their protein.)
A further assay has as its system HCT-116. In words: Antiproliferative activity against human HCT-116 cells assessed as inhibition of cell growth incubated for 72 hrs by SRB assay. Type of assay: functional, cell-based. The conditions noted are these: HCT-116, 72 h.
The test system of assay [1] is RKO. In words: Antiproliferative activity against human RKO cells assessed as inhibition of cell growth incubated for 72 hrs by SRB assay. Format: functional, cell-based.
A further assay deals with CCD-18Co. In words: Antiproliferative activity against human CCD-18Co cells assessed as inhibition of cell growth incubated for 72 hrs by SRB assay. Format: cell-based.
Another assay concerns LS174T. Nature of the assay: Antiproliferative activity against human LS174T cells assessed as inhibition of cell growth incubated for 72 hrs by SRB assay. Type of assay: functional, cell-based.
Assay [2] has as its system RKO. In words: Antitumor activity against human RKO cells implanted in BALB/c nude mouse assessed as inhibition of tumor growth at 8 mg/kg, ip administered three times per week for 21 days and measured every 3 to 4 days by electronic caliper method. Type of assay: functional. Particulars: time 21.0 day.
For assay [3], the system named is RKO. Nature of the assay: Antitumor activity against human RKO cells implanted in BALB/c nude mouse assessed as suppression of Ki67 expression level in tumor lysates at 4 to 8 mg/kg, ip administered three times per week for 21 days by Western blotting analysis. Particulars: Neoplasm, dose 4-8 mg/kg, time 21.0 day. Format: functional, organism-based. On the technique in general: Immunoblotting shows a protein as a band on a membrane.

Assay [4] concerns RKO. In words: Suppression of GAPDH protein expression in human RKO cells at 2.5 to 10 uM after 24 hrs by Western blotting analysis. Format: functional, cell-based. Particulars: dose 2.5-10 µM.
In assay [5] the test system is RKO. Nature of the assay: Antitumor activity against human RKO cells implanted in BALB/c nude mouse assessed as inhibition of tumor growth at 4 mg/kg, ip administered three times per week for 21 days and measured every 3 to 4 days by electronic caliper method. Type of assay: functional. The conditions noted are these: time 21.0 day.
Assay [6] relates to RKO. In words: Antitumor activity against human RKO cells implanted in ip dosed BALB/c nude mouse assessed as suppression of GAPDH expression in tumor lysates administered three times per week for 21 days by Western blotting analysis. Format: functional, organism-based. Particulars: Neoplasm, time 21.0 day.

Active and inactive are the calls of the source. The calls are words filed in the database; no cut-off is given here.

Consider `COc1cc([C@@H]2c3cc4c(cc3[C@@H](O[C@@H]3O[C@@H]5CO[C@@H](C)O[C@H]5[C@H](O)[C@H]3O)[C@H]3COC(=O)[C@H]23)OCO4)cc(OC)c1O` [ETOPOSIDE], for which the IC50 was determined as 1.11 µM with SW480; 8.71 µM in the assay on CCD-841CoN; 0.66 µM with HCT-116; 1.96 µM with RKO [1]; 18.4 µM in the assay with CCD-18Co; 0.48 µM in the assay on LS174T.

In the case of `CCCCCCCCC[C@@H](O)CC(=O)N[C@@H](CC(N)=O)C(=O)N[C@@H](CCC(N)=O)C(=O)N[C@@H](CC(C)C)C1=C(c2c(O)cccc2O)c2c(O)cc(C)cc2C1=O`, the IC50 in the assay with SW480, with CCD-841CoN, in the assay on HCT-116, in the assay with RKO [1], with CCD-18Co and with LS174T was above 50 µM in each case. Besides, the TGI result with RKO [2] and in the assay on RKO [5] was “inactive” in each case. The outcome in the assay on RKO [3], in the assay with RKO [4] and with RKO [6] was inactive.

(Values after ChEMBL document CHEMBL4811222, “Antitumor Activity of Asperphenin B by Induction of Apoptosis and Regulation of Glyceraldehyde-3-phosphate Dehydrogenase in Human Colorectal Cancer Cells” (J Nat Prod, 2021).)
